Laboratory results reported in ChEMBL document CHEMBL3797105, “Investigation of triazole-linked indole and oxindole glycoconjugates as potential anticancer agents: novel Akt/PKB signaling pathway inhibitors” (Medchemcomm, 2016).
pIC50: −log10 of the molar value. Activity calls are given as the source filed them. No cut-off for these calls is given here.

Legend:
[1] = Cell cycle arrest in human DU145 cells assessed as accumulation at sub G1 phase at 5 uM after 48 hrs by propidium iodide staining based flow cytometry (reference value: 2.30%); assay type: functional; conditions: DU-145
DU-145 [2] = test: Induction of morphological changes in human DU145 cells after 48 hrs by microscopic analysis; assay type: functional, cell-based
DU-145 [3] = test: Induction of apoptosis in human DU145 cells assessed as activation of caspase 8 using Ac-VETD-AMC as substrate preincubated for 48 hrs followed by substrate addition measured after 2 hrs by fluorescence analysis; assay type: functional, cell-based
[4] = Cell cycle arrest in human DU145 cells assessed as accumulation at S phase at 15 uM after 48 hrs by propidium iodide staining based flow cytometry (reference value: 8.62%); assay type: functional; conditions: DU-145
[5] = Cell cycle arrest in human DU145 cells assessed as accumulation at sub G1 phase at 20 uM after 48 hrs by propidium iodide staining based flow cytometry (reference value: 2.30%); assay type: functional; conditions: DU-145
[6] = Cell cycle arrest in human DU145 cells assessed as accumulation at sub G1 phase at 25 uM after 48 hrs by propidium iodide staining based flow cytometry (reference value: 2.30%); assay type: functional; conditions: DU-145
[7] = Cytotoxicity against human DU145 cells after 48 hrs by sulforhodamine B assay; assay type: functional, cell-based; conditions: DU-145, 48 h
[8] = Cell cycle arrest in human DU145 cells assessed as accumulation at G0/G1 phase at 10 uM after 48 hrs by propidium iodide staining based flow cytometry (reference value: 61.28%); assay type: functional; conditions: DU-145
[9] = Cytotoxicity against mouse NIH/3T3 cells after 48 hrs by sulforhodamine B assay; conditions: NIH3T3, 48 h
[10] = Cell cycle arrest in human DU145 cells assessed as accumulation at G0/G1 phase at 5 uM after 48 hrs by propidium iodide staining based flow cytometry (reference value: 61.28%); assay type: functional; conditions: DU-145
[11] = Cell cycle arrest in human DU145 cells assessed as accumulation at sub G1 phase at 15 uM after 48 hrs by propidium iodide staining based flow cytometry (reference value: 2.30%); assay type: functional; conditions: DU-145
DU-145 [12] = test: Inhibition of Akt phosphorylation in human DU145 cells after 48 hrs by Western blot analysis; assay type: cell-based
DU-145 [13] = test: Induction of apoptosis in human DU145 cells assessed as activation of caspase 9 using […] as substrate preincubated for 48 hrs followed by substrate addition measured after 2 hrs by fluorescence analysis; assay type: functional, cell-based
DU-145 [14] = test: Inhibition of Akt in human DU145 cells assessed as increase in p27Kip1 levels after 48 hrs by Western blot analysis; assay type: cell-based
DU-145 [15] = test: Induction of apoptosis in human DU145 cells assessed as activation of caspase 3 using Ac-DEVD AMC as substrate at 5 to 25 uM preincubated for 48 hrs followed by substrate addition measured after 2 hrs by fluorescence analysis; assay type: functional, cell-based
[16] = Cell cycle arrest in human DU145 cells assessed as accumulation at S phase at 25 uM after 48 hrs by propidium iodide staining based flow cytometry (reference value: 8.62%); assay type: functional; conditions: DU-145
DU-145 [17] = test: Inhibition of colony formation in human DU145 cells after 9 days by crystal violet staining based microscopic analysis; assay type: functional, cell-based
[18] = Cell cycle arrest in human DU145 cells assessed as accumulation at S phase at 20 uM after 48 hrs by propidium iodide staining based flow cytometry (reference value: 8.62%); assay type: functional; conditions: DU-145
[19] = Cell cycle arrest in human DU145 cells assessed as accumulation at S phase at 10 uM after 48 hrs by propidium iodide staining based flow cytometry (reference value: 8.62%); assay type: functional; conditions: DU-145
[20] = Cell cycle arrest in human DU145 cells assessed as accumulation at G2/M phase at 25 uM after 48 hrs by propidium iodide staining based flow cytometry (reference value: 15.81%); assay type: functional; conditions: DU-145
[21] = Cell cycle arrest in human DU145 cells assessed as accumulation at G2/M phase at 5 uM after 48 hrs by propidium iodide staining based flow cytometry (reference value: 15.81%); assay type: functional; conditions: DU-145
[22] = Cell cycle arrest in human DU145 cells assessed as accumulation at G0/G1 phase at 25 uM after 48 hrs by propidium iodide staining based flow cytometry (reference value: 61.28%); assay type: functional; conditions: DU-145
A549 = test: Cytotoxicity against human A549 cells after 48 hrs by sulforhodamine B assay; assay type: functional, cell-based; conditions: A549, 48 h
[23] = Cell cycle arrest in human DU145 cells assessed as accumulation at G2/M phase at 15 uM after 48 hrs by propidium iodide staining based flow cytometry (reference value: 15.81%); assay type: functional; conditions: DU-145
[24] = Cell cycle arrest in human DU145 cells assessed as accumulation at G0/G1 phase at 15 uM after 48 hrs by propidium iodide staining based flow cytometry (reference value: 61.28%); assay type: functional; conditions: DU-145
[25] = Cell cycle arrest in human DU145 cells assessed as accumulation at sub G1 phase at 10 uM after 48 hrs by propidium iodide staining based flow cytometry (reference value: 2.30%); assay type: functional; conditions: DU-145
[26] = Cell cycle arrest in human DU145 cells assessed as accumulation at G0/G1 phase at 20 uM after 48 hrs by propidium iodide staining based flow cytometry (reference value: 61.28%); assay type: functional; conditions: DU-145
MCF7 = test: Cytotoxicity against human MCF7 cells after 48 hrs by sulforhodamine B assay; assay type: functional, cell-based; conditions: MCF7, 48 h
[27] = Cell cycle arrest in human DU145 cells assessed as accumulation at S phase at 5 uM after 48 hrs by propidium iodide staining based flow cytometry (reference value: 8.62%); assay type: functional; conditions: DU-145
[28] = Cell cycle arrest in human DU145 cells assessed as accumulation at G2/M phase at 20 uM after 48 hrs by propidium iodide staining based flow cytometry (reference value: 15.81%); assay type: functional; conditions: DU-145
[29] = Cell cycle arrest in human DU145 cells assessed as accumulation at G2/M phase at 10 uM after 48 hrs by propidium iodide staining based flow cytometry (reference value: 15.81%); assay type: functional; conditions: DU-145
HeLa = test: Cytotoxicity against human HeLa cells after 48 hrs by sulforhodamine B assay; assay type: functional, cell-based

With `CC(=O)OC[C@H]1O[C@@H](n2cc(CN3C(=O)/C(=C/c4ccc(C)cc4)c4ccccc43)nn2)[C@H](OC(C)=O)[C@@H](OC(C)=O)[C@@H]1OC(C)=O` as the compound, how does the Activity [1] read?
Its Activity is 7.12%.

And the Activity (DU-145 [2])?
The Activity was “Dose-dependent effect”.

And the Activity (DU-145 [3])?
The Activity was “Dose-dependent effect”.

What about the Activity [4] of the same compound?
Its Activity is 7.64%.

What about the Activity [5] of the same compound?
Its Activity is 34.3%.

And the Activity [6]?
Its Activity is 37.5%.

And the pIC50 [7]?
Its pIC50 is 5.03.

What about the Activity [8] of the same compound?
Its Activity is 48.1%.

What about the pIC50 [9] of the same compound?
Its pIC50 is 4.13.

And the Activity [10]?
The Activity was 59.1%.

And the Activity [11]?
The Activity was 17.2%.

What about the inhibition (DU-145 [12]) of the same compound?
Its inhibition is “Active”.

What about the Activity (DU-145 [13]) of the same compound?
Its Activity is “Dose-dependent effect”.

What about the inhibition (DU-145 [14]) of the same compound?
The inhibition was “Dose-dependent effect”.

What about the Activity (DU-145 [15]) of the same compound?
Its Activity is “Active”.

What about the Activity [16] of the same compound?
The Activity was 4.86%.

And the inhibition (DU-145 [17])?
Its inhibition is “Dose-dependent effect”.

What about the Activity [18] of the same compound?
The Activity was 5.72%.

And the Activity [19]?
Its Activity is 7.56%.

What about the Activity [20] of the same compound?
The Activity was 9.05%.

What about the Activity [21] of the same compound?
The Activity was 12.6%.

And the Activity [22]?
The Activity was 41.4%.

What about the pIC50 (A549) of the same compound?
The pIC50 was 4.80.

What about the Activity [23] of the same compound?
The Activity was 14.9%.

What about the Activity [24] of the same compound?
Its Activity is 46.6%.

And the Activity [25]?
The Activity was 14.4%.

What about the Activity [26] of the same compound?
Its Activity is 40.5%.

And the pIC50 (MCF7)?
Its pIC50 is under 4.00.

And the Activity [27]?
Its Activity is 6.85%.

And the Activity [28]?
Its Activity is 10.9%.

What about the Activity [29] of the same compound?
Its Activity is 16.7%.

And the pIC50 (HeLa)?
Its pIC50 is 4.07.

For `CC(=O)OC[C@H]1O[C@@H](n2cc(Cn3cc(/C=C/C(=O)c4ccccc4)c4ccccc43)nn2)[C@H](OC(C)=O)[C@@H](OC(C)=O)[C@@H]1OC(C)=O`, which Activity [1] is on record?
The Activity was 4.53%.

And the Activity (DU-145 [2])?
The Activity was “Dose-dependent effect”.

And the Activity (DU-145 [3])?
Its Activity is “Dose-dependent effect”.

What about the Activity [4] of the same compound?
Its Activity is 3.82%.

What about the Activity [5] of the same compound?
The Activity was 82.4%.

What about the Activity [6] of the same compound?
Its Activity is 84.1%.

What about the pIC50 [7] of the same compound?
Its pIC50 is 4.84.

What about the Activity [8] of the same compound?
The Activity was 21.2%.

And the pIC50 [9]?
Its pIC50 is under 3.70.

What about the Activity [10] of the same compound?
Its Activity is 75%.

And the Activity [11]?
The Activity was 54%.

What about the inhibition (DU-145 [12]) of the same compound?
The inhibition was “Active”.

And the Activity (DU-145 [13])?
Its Activity is “Dose-dependent effect”.

What about the inhibition (DU-145 [14]) of the same compound?
Its inhibition is “Dose-dependent effect”.

And the Activity (DU-145 [15])?
The Activity was “Active”.

And the Activity [16]?
Its Activity is 0.8%.

What about the inhibition (DU-145 [17]) of the same compound?
Its inhibition is “Dose-dependent effect”.

What about the Activity [18] of the same compound?
Its Activity is 1.34%.

And the Activity [19]?
Its Activity is 4.41%.

And the Activity [20]?
The Activity was 1.01%.

What about the Activity [21] of the same compound?
Its Activity is 8.22%.

And the Activity [22]?
Its Activity is 12%.

And the pIC50 (A549)?
Its pIC50 is 4.79.

And the Activity [23]?
The Activity was 11.9%.

And the Activity [24]?
Its Activity is 21.5%.

What about the Activity [25] of the same compound?
Its Activity is 43.7%.

And the Activity [26]?
The Activity was 12.9%.

What about the pIC50 (MCF7) of the same compound?
Its pIC50 is 4.62.

And the Activity [27]?
The Activity was 4.72%.

And the Activity [28]?
Its Activity is 1.87%.

What about the Activity [29] of the same compound?
The Activity was 16.2%.

What about the pIC50 (HeLa) of the same compound?
The pIC50 was 4.48.
